# In patent US20240024262A1, “USE OF VALERIC ACID IN PREPARATION OF DRUG FOR PREVENTING AND TREATING DIABETES” (Harbin Medical University, priority 2022, published 2024):
# Key:
# [1] = test system: mouse pancreatic tissues (islet β cells); experiment: Histopathology of pancreas of high-fat fed mice (HE, ERK immunohistochemistry, immunofluorescence); assay type: in vivo
# Procedure: In order to detect a blood glucose homeostasis level and an insulin function of each mouse, an oral glucose tolerance test (OGTT) for the mice was performed. At the night before this test, test mice were fasted but not water for 16 h and transferred from a feeding room to a clean experimental operation room, so that the animals could adapt to the environment. Before the OGTT started, a weight of each mouse was accurately weighed, and an injection dose of glucose was calculated according to 2 mg/g body weight, and a tail was cut for collecting blood at 0 minute, 15 minutes, 30 minutes, 60 minutes and 120 minutes after intragastric injection of the glucose. A first drop of blood after tail cutting was discarded, and then concentrations of blood glucose (mmol/L) were continuously detected using an Accu-Chek blood glucose meter (Roche diagnosis, USA). The test mice were fasted for 12 h at the night before sampling, and were anesthetized by intraperitoneal injection of a 10% chloral hydrate-containing solution. After the intraperitoneal cavities of the mice were cut, blood was collected by apical blood collection, and the test mice were killed. After being collected, blood samples were left for still standing for 2 h at the room temperature, and then centrifuged for 15 min at […], serum at the upper layer was sucked, and then biochemical detection was performed immediately. After the blood samples were collected, pancreatic tissues of the mice were immediately cut off so as to prevent pancreatic dissolution, and heads and tails of pancreas were separately stored. Then other tissues of the mice were extracted. Pictures of tissue morphologies of various parts of the mice were photographed and stored, and weights of tissues were weighed and precisely recorded. Subsequently, the extracted tissues were divided into two parts, one of the two parts was sub-packed into an EP tube, immediately rapidly frozen in liquid nitrogen and then transferred to a −80° C. refrigerator for cryopreservation; and the other part was sub-packed into an EP tube containing 4% paraformaldehyde to be fixed for making pathological tissue sections later.
# (§1) During the subsequent test, in order to observe pathological morphologies of animal tissues, paraffin sections of mouse tissues were made and subjected to HE staining, immunohistochemical staining and immunofluorescence staining. Also, mouse pancreatic tail tissues in a valeric acid intervention group and a control group were taken out from the −80° C. refrigerator and underwent TMT labeled quantitative proteome detection of the animal tissues, and differential proteins were subjected to a Western Blot test and a real-time fluorescence quantitative polymerase chain reaction (QRT PCR) test for the animal tissues to verify test results.
# [2] = test system: db/db mouse islet tissues; experiment: Histopathology of pancreatic tissues of db/db mice (HE, immunofluorescence); assay type: in vivo
# Procedure: During the subsequent test, in order to observe pathological morphologies of animal tissues, paraffin sections of mouse tissues were made and subjected to HE staining, immunohistochemical staining and immunofluorescence staining. […] Histopathological examination is also performed on the pancreatic tissues of db/db mice.
# [3] = test system: 3-phosphoinositide dependent protein kinase 1 (Pdpk1); experiment: TMT proteomic detection of pancreatic tissues, HFD+VA vs HFD+PBS; assay type: in vivo, mice; settings: TMT proteomics
# Procedure: as §1
# Through functional annotation of GO and KEGG databases, metabolic pathways such as energy and glycolipid metabolism, glycogen synthesis, redox and phosphorylation are enriched (FIG. 19).
# [4] = test system: PI3k/Pdpk1/Akt insulin metabolic pathway; experiment: WB and ELISA of key proteins of PI3k/Pdpk1/Akt insulin metabolic pathway in mouse pancreatic tissues; assay type: in vivo, mice; settings: p value <0.05
# Procedure: as §1
# [5] = test system: cell proliferation and differentiation pathway; experiment: WB and ELISA of classical proteins in a cell proliferation and differentiation pathway in mouse pancreatic tissues; assay type: in vivo, mice
# Procedure: as §1
smiles,measurement,setting,value
CCCCC(=O)O [valeric acid],proportion of ERK positive areas,[1]; ERK staining of paraffin sections,increased significantly
same,islet areas,"[1]; HE staining, HF-V group",obviously enlarged
same,number of islets,"[1]; HE staining, HF-V group",increased
same,number of β cells in the islet,"[1]; HE staining, HF-V group",significantly increased
same,number of Ki67 stained nuclei in the pancreas,[1]; insulin/Ki67/DAPI immunofluorescence,increased significantly
same,secretion proportion of the insulin in the pancreas,[1]; insulin/glucagon/DAPI immunofluorescence,increased significantly
same,islet area,[2]; HE staining,increased significantly
same,islet cells,[2]; HE staining,increased significantly
same,proportion of Ki67 (+),[2]; Ki67/insulin staining,increased significantly
same,ratio of the insulin to glucagon,[2]; immunofluorescence,increased significantly
same,expression level of Pdpk1 in the mouse pancreatic tissues,[3],significantly increased
same,expression level of Akt,[4],significantly increased
same,expression level of PIPS,[4],significantly increased
same,expression level of Pdpk1,[4],significantly increased
same,expression level of mTOR,[4],significantly increased
same,expression level of p-Akt,[4],significantly increased
same,expression level of p-mTOR,[4],significantly increased
same,expression level of ERK1/2,[5],significantly increased
same,expression level of FoxO1A,[5],significantly increased
same,expression level of MafA,[5],significantly increased
same,expression level of Nkx6.1,[5],significantly increased
same,expression level of PDX1,[5],significantly increased
same,expression level of p-ERK1/2,[5],significantly increased
